Earlier results on one compound are cited in patent publication US20180235982A1, “Treatment for Spirochete borne illness” (priority 2017, published 2018).

As a reminder, the half-life is the time needed for the level to fall by half in the phase considered.

For the series the following is noted: no species, matrix or method given.

`CN(C)c1ccc(O)c2c1C[C@H]1C[C@H]3[C@H](N(C)C)C(O)=C(C(N)=O)C(=O)[C@@]3(O)C(O)=C1C2=O` [Minocycline]: the half-life is 12 to 14 h.
